# According to patent US9611500B2, “Method for detecting the presence of the viable cells in an endodontic sample” (KINGS COLLEGE LONDON, priority 2011, dated 2017):
# Marks after values point to notes of the source that are not given here.
# Test system: Multispecies mature biofilm from clinical isolates (Actinomyces radicidentis, Enterococcus faecalis, Propionibacterium acnes, Streptococcus epidermidis …)
# Assay: Viable post-experimental counts of multi-species biofilms on root halves after irrigation
# Format: cell-based
# Settings: 1% NaOCl solution irrigation (5 ml) of root canals of extracted teeth with two-week biofilm; paper point sampling; FAA plates incubated anaerobically 7 days; triplicates
# Source text: Twenty freshly extracted, single rooted teeth were obtained under ethical Approval (South East London ethical approval 10/H0804/056). Each tooth had the crown removed to obtain 15 mm long specimens, using a 0.3 mm thickness diamond wafering blade (Extec, Enfield, Conn., USA) on a 11-1180 Isomet low speed saw (Buehler, Düsseldorf, Germany). Root canal patency was confirmed using an ISO 10 K-file. Canals were instrumented with Gates Glidden (nr. 2-4) for coronal flaring followed by ProTaper F3 instrumentation and apical instrumentation with an ISO 45 K-file 1 mm short of the working length. Irrigation throughout the instrumentation was undertaken with sterile saline. […]
# Multispecies mature biofilm from clinical isolates, identified through sequencing (Actinomyces radicidentis, Enterococcus faecalis, Propionibacterium acnes, Streptococcus epidermidis, Streptococcus oxalis) were grown in 24 multiwell plates for two weeks on root halves using a modification of the established 5-day biofilm protocol (Gmür & Guggenheim 1983). […] The turbidity was adjusted with fresh mFUM to OD at 540 nm (Labsystems iEMS Reader MF) to 0.5. […]
# After each root had been subjected to its respective irrigation protocol and imaging steps, the root halves were aseptically placed in a 9 cm petri dish (SLS, East Riding of Yorkshire, UK). […] After the incubation, the numbers of colonies on FAA plates were counted. […]
smiles,measurement,value
OCl [Sodium hypochlorite],Microbial counts expressed as log10 (Mean ± SE) after anaerobic growth,0.51* Log10
